Measurements published in patent publication US20250303359A1, “COMPOUNDS AND METHODS FOR SAFE MITIGATION OF OCEAN ACIDIFICATION AND CAPTURE OF ATMOSPHERIC CARBON DIOXIDE” (Negative Emissions Materials, Inc., priority 2022, published 2025).
Read-outs that look alike come from different tables or passages of the source.

Tests used:
[1] = test system: Tetraselmis suecica cultures; conditions: hydroxide additions equivalent to 1 and 10 mg/L of Mg(OH)2, 6-day period
[2] = test system: Tetraselmis suecica; conditions: for survival after six days of regrowth/culture: 1 hour exposure to 100 g/L Mg(OH)2, 200 g/L NaOH or 100 g/L Ca(OH)2, dilution to 10 mg/L, 6 days; for surviving cells immediately after dilution: 1 hour exposure to 200 g/L NaOH or 100 g/L Ca(OH)2, then dilution to 10 mg/L
[3] = Sinking rate of Mg(OH)2 in seawater; format: physicochemical
[4] = test system: Skeletonema pseudocastatum
[5] = test system: Tisbe battaglial; conditions: acute, 48 h, n = 1; Mg(OH)2 mixed as paste into local seawater
[6] = test system: Danio rerio; conditions: acute, 96 h, n = 1; Mg(OH)2 paste
[7] = test system: Tisbe battaglial; conditions: chronic, 7 days, n = 1; Mg(OH)2 mixed as paste into local seawater
[8] = test system: aquatic organisms

Row | Compound | ecotoxicity (growth inhibition) [1] | survival after six days of regrowth/culture [2] | surviving cells immediately after dilution [2] | sinking rate ([3]; added as powder, visible particles (>100 μm)) | particle size distribution ([3]; added to seawater as paste) | sinking rate ([3]; small particles of about 10 micron, based on 4 cm sinking within 10 minutes, LISST instrument) [m/day] | dosage showing no negative impact ([4]; standardized ecotoxicity work) [mg/L] | dosages showing negative impact ([4]; standardized ecotoxicity work) [mg/L] | Lowest observed effect concentration (LOEC) ([4]; sub-chronic, 72 h, n = 2, Mg(OH)2 mixed as paste into local seawater) [mg/L] | Lowest observed effect concentration (LOEC) [5] [mg/L] | Lowest observed effect concentration (LOEC) [6] [mg/L] | Lowest observed effect concentration (LOEC) [7] [mg/L] | mortality compared to the control water ([2]; less than 10 hours of exposure to 100 g/L prior to dilution to 10 mg/L, survival six days after) | lowest tested concentration showing some toxicity effect on aquatic organisms ([8]; all standard test organisms) [mg/L] | concentration at which no toxicity effect was observed ([8]; any of the standard test organisms) [ng/mL] | pH of solution in seawater (0.05 g/L Mg(OH)2, after 115 minutes mixing (300 rpm), still increasing) | mixing time to full dissolution of particles (concentrations below ~10 mg/L, 60 m deep seawater pH 7.9-8.0, approx. 22 °C, 300 rpm) | maximum pH achieved (seawater, depends on Mg(OH)2 concentration)
1 | [Ca+2].[OH-].[OH-] [Ca(OH)2, calcium hydroxide] | not ecotoxic | very few living cells | no surviving cells |  |  |  |  |  |  |  |  |  |  |  |  |  |  | 
2 | [Mg+2].[OH-].[OH-] [Mg(OH)2, magnesium hydroxide] | not ecotoxic | no mortality |  | 0.8-6 km/day | 5-60 μm | ~6 | 25 | ≥ 50 | 50 | 100 | >100 | >100 | no mortality | 50 | 25000 | 9.04 | approximately 3 hours | ~9.5
3 | sodium hydroxide [NaOH] |  | no surviving organisms | no surviving cells |  |  |  |  |  |  |  |  |  |  |  |  |  |  | 
